Target: cRaf (Homo sapiens, UniProt P04049)
Experiment: Generic kinase assay (33P-ATP, Myelin Basic Protein)
Type: biochemical
Conditions: 1 h; class symbol: % inhibition at 10 μM or IC50; read-out: Inhibitory effect on target cRaf
Experimental: (§1) In order to determine the inhibitory effect of the compounds of the subject invention on various target enzymes a generic kinase assay was established.
(§2) Reactions were performed in 96-Well U-bottom microtiter plates (Greiner Bio-One; Frickenhausen/Germany, Cat. No. 650161), hereinafter designated “Assay Plates”. 10 μl of a solution comprising 40 μM Myelin Basic Protein (Invitrogen; Carlsbad, Calif./USA; Cat. No. 13228-010) and 4 μM ATP in three-fold concentrated Reaction Buffer (60 mM Tris-HCl, pH 7.5; 30 mM MgCl2; 3 mM dithiothreitol) were added into each well of the Assay Plate. 10 μl of serial dilutions of the compounds of the subject invention, dissolved in 4% DMSO, were then added into each well, except for Positive Control. Wells (C+ wells) and Negative Control Wells (C− wells). 10 μl of 4% DMSO without compounds were added to C+ and C− wells. 10 μl of a 500 mM solution of EDTA in water was then added to C− wells. Then 10 μl of a solution containing 50 μCi/ml Adenosine 5′-[γ-^33P]triphosphate in water was added to each well. To start the reaction 10 μl of the kinase to be assayed was added to each well. The optimal amount of kinase in the assay was determined to be the amount which yields to a turn-over of about 10% of ATP. Assay Plates were incubated for one hour at room temperature. Then 10 μl of a 500 mM solution of EDTA in water was added to each well except C− wells. Samples were now ready for measurement.
(§3) Measurements were preformed in 96-Well MAPH-Filter Plates (Millipore; Billerica, Mass./United States; Cat. No. MAPHNOB50), hereinafter designated “Measurement Plates”. Measurement Plates were washed with 200 μl of a 0.75% H3PO4 solution per well. The H3PO4 solution was exhausted using a Millipore vacuum station. 60 μl of a 0.75% H3PO4 solution was then added into each well, followed by the transfer of 30 μl of each well from the Assay Plate into the corresponding wells of the Measurement Plate. The Measurement Plate was incubated for 30 minutes at room temperature. Thereafter each well was washed three times with 200 μl of a 0.75% H3PO4 solution using a Millipore vacuum station. 20 μl of scintillation liquid (Supermix Liquid Szintillator; Perkin Elmer, Wellesley. Mass./United States; Cat. No. 1200-439) was then added to each well of the Measurement Plate. The plate was sealed and stored for 30 minutes in the darkness before radioactivity was quantified in a MicroBeta Scintillation Counter (Perkin Elmer, Wellesley. Mass./United States).

Chain of cRaf (P04049 whole entry, species assumed): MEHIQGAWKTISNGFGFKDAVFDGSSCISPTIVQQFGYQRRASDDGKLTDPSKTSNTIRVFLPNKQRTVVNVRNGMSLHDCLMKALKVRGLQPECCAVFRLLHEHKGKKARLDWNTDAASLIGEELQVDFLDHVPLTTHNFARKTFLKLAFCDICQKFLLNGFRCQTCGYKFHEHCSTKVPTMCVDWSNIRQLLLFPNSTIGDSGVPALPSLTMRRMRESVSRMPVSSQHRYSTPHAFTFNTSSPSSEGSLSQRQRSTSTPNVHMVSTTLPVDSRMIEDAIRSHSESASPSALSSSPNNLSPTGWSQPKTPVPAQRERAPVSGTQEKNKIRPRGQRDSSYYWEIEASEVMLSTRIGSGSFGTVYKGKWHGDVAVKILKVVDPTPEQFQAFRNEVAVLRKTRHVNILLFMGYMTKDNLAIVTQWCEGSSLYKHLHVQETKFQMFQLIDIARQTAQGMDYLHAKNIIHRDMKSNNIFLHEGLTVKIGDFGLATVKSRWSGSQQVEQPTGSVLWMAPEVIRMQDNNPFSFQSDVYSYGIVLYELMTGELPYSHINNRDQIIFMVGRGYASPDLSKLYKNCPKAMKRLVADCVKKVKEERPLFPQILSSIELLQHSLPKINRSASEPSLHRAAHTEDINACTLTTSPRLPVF

inhibition at 10 µM | SMILES
50 to 90% | COc1cccc(-c2cncc(NCc3cccc(O)c3)c2)c1F [Compound 236, 3-{[5-(2-Fluoro-3-methoxy-phenyl)-pyridin-3-ylamino]-methyl}-phenol]
50 to 90% | Oc1cccc(CNc2cncc(-c3ccccc3)c2)c1 [Compound 238, 3-[(5-Phenyl-pyridin-3-ylamino)-methyl]-phenol]
50 to 90% | COC(=O)c1cccc(-c2cncc(NCc3cccc(O)c3)c2)c1 [Compound 243, 3-[5-(3-Hydroxy-benzylamino)-pyridin-3-yl]-benzoic acid methyl ester]
50 to 90% | NC(=O)c1cccc(-c2cncc(NCc3cccc(O)c3)c2)c1 [Compound 230, 3-[5-(3-Hydroxy-benzylamino)-pyridin-3-yl]-benzamide]

Target: c-Src (Homo sapiens, UniProt P12931)
Experiment: as above
Type: biochemical
Conditions: class symbol: % inhibition at 10 μM or IC50
Experimental: as §1, §2, §3

SMILES | Inhibitory effect on target c-Src
COc1cccc(-c2cncc(NCc3cccc(O)c3)c2)c1F [Compound 236, 3-{[5-(2-Fluoro-3-methoxy-phenyl)-pyridin-3-ylamino]-methyl}-phenol] | A (A: 50-90% inhibition at 10 μM enzyme concentration)

Target: Abl (Homo sapiens, UniProt P00519)
Experiment: as above
Type: biochemical
Conditions: 1 h; class symbol: % inhibition at 10 μM or IC50; read-out: Inhibitory effect on target Abl
Experimental: as §1, §2, §3

Chain of Abl (P00519 whole entry, species assumed): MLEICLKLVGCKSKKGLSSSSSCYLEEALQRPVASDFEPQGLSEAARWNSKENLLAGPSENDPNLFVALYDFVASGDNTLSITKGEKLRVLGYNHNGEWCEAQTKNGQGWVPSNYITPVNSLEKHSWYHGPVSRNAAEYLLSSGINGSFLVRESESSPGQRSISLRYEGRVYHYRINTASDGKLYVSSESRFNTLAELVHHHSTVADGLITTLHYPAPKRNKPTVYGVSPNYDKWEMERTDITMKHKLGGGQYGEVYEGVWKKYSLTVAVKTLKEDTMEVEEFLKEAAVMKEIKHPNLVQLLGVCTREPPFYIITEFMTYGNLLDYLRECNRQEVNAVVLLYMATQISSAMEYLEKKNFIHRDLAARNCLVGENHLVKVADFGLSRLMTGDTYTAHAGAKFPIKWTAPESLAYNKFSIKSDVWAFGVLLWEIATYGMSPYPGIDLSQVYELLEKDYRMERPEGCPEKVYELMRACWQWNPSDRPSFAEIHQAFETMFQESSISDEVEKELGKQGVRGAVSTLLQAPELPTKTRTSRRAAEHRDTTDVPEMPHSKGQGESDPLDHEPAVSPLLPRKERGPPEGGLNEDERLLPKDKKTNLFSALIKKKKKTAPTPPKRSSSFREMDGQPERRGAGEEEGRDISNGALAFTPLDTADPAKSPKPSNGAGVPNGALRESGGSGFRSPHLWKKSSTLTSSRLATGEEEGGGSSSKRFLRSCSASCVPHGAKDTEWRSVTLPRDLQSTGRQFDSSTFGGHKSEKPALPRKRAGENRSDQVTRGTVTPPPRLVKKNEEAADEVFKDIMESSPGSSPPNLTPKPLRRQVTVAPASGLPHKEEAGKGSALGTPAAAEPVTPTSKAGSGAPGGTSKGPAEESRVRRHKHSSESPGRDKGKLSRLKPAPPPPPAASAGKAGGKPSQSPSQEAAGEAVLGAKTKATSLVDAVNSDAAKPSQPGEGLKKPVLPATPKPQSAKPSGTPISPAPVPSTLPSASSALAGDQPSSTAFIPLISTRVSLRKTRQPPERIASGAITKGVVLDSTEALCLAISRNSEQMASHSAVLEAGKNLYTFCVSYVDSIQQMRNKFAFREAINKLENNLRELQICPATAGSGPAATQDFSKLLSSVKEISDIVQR

inhibition at 10 µM | SMILES
50 to 90% | COc1cccc(-c2cncc(NCc3cccc(O)c3)c2)c1F [Compound 236, 3-{[5-(2-Fluoro-3-methoxy-phenyl)-pyridin-3-ylamino]-methyl}-phenol]
50 to 90% | Oc1cccc(CNc2cncc(-c3ccccc3)c2)c1 [Compound 238, 3-[(5-Phenyl-pyridin-3-ylamino)-methyl]-phenol]
50 to 90% | COC(=O)c1cccc(-c2cncc(NCc3cccc(O)c3)c2)c1 [Compound 243, 3-[5-(3-Hydroxy-benzylamino)-pyridin-3-yl]-benzoic acid methyl ester]
> 90% | NC(=O)c1cccc(-c2cncc(NCc3cccc(O)c3)c2)c1 [Compound 230, 3-[5-(3-Hydroxy-benzylamino)-pyridin-3-yl]-benzamide]

Target: ROCK 2 (Homo sapiens, UniProt O75116)
Experiment: as above
Type: biochemical
Conditions: 1 h; class symbol: % inhibition at 10 μM or IC50; read-out: Inhibitory effect on target ROCK 2
Experimental: as §1, §2, §3

inhibition at 10 µM | SMILES
50 to 90% | COC(=O)c1cccc(-c2cncc(NCc3cccc(O)c3)c2)c1 [Compound 243, 3-[5-(3-Hydroxy-benzylamino)-pyridin-3-yl]-benzoic acid methyl ester]

Same assay, conditions: class symbol: % inhibition at 10 μM or IC50

Inhibitory effect on target ROCK 2 | SMILES
C (C: IC50 measured: <1 μM) | NC(=O)c1cccc(-c2cncc(NCc3cccc(O)c3)c2)c1 [Compound 230, 3-[5-(3-Hydroxy-benzylamino)-pyridin-3-yl]-benzamide]

Target: EGFR (Homo sapiens, UniProt P00533)
Experiment: as above
Type: biochemical
Conditions: class symbol: % inhibition at 10 μM or IC50
Experimental: as §1, §2, §3

Chain of EGFR (P00533 25-1210, species assumed): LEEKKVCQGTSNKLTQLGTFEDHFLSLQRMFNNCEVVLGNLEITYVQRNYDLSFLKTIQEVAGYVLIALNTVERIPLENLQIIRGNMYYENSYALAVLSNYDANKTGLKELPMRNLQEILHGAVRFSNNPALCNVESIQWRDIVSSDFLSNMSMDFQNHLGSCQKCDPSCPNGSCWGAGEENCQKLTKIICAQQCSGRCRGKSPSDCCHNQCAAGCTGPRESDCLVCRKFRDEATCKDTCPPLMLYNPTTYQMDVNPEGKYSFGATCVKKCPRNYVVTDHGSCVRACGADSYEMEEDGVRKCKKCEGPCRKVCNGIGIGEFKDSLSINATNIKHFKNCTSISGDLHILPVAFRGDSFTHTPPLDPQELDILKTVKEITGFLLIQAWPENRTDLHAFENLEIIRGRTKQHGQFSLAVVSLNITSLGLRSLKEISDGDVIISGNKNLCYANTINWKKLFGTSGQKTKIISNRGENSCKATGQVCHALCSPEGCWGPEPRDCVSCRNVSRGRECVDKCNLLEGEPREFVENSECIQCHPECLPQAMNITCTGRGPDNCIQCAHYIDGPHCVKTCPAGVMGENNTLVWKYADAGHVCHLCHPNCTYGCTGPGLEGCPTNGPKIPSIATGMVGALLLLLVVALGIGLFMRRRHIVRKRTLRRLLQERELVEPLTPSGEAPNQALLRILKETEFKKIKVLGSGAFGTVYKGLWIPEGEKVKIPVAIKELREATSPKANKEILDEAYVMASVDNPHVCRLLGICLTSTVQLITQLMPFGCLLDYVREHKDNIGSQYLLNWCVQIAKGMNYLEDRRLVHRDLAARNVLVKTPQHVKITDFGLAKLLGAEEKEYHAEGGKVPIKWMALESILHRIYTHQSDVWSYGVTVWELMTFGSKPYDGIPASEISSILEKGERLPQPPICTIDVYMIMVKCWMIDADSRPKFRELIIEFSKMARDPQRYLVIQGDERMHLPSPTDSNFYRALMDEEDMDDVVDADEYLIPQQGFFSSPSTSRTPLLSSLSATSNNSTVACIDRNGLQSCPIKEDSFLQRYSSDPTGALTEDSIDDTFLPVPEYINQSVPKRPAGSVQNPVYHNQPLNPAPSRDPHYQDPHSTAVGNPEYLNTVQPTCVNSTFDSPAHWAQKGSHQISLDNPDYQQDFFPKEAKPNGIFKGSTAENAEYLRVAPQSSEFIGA

SMILES | Inhibitory effect on target EGFR
COc1cccc(-c2cncc(NCc3cccc(O)c3)c2)c1F [Compound 236, 3-{[5-(2-Fluoro-3-methoxy-phenyl)-pyridin-3-ylamino]-methyl}-phenol] | A (A: 50-90% inhibition at 10 μM enzyme concentration)
Oc1cccc(CNc2cncc(-c3ccccc3)c2)c1 [Compound 238, 3-[(5-Phenyl-pyridin-3-ylamino)-methyl]-phenol] | A (A: 50-90% inhibition at 10 μM enzyme concentration)
NC(=O)c1cccc(-c2cncc(NCc3cccc(O)c3)c2)c1 [Compound 230, 3-[5-(3-Hydroxy-benzylamino)-pyridin-3-yl]-benzamide] | A (A: 50-90% inhibition at 10 μM enzyme concentration)

Test system: PDGFR
Experiment: as above
Type: biochemical
Conditions: class symbol: % inhibition at 10 μM or IC50
Experimental: as §1, §2, §3

SMILES | Inhibitory effect on target PDGFR
COc1cccc(-c2cncc(NCc3cccc(O)c3)c2)c1F [Compound 236, 3-{[5-(2-Fluoro-3-methoxy-phenyl)-pyridin-3-ylamino]-methyl}-phenol] | A (A: 50-90% inhibition at 10 μM enzyme concentration)
Oc1cccc(CNc2cncc(-c3ccccc3)c2)c1 [Compound 238, 3-[(5-Phenyl-pyridin-3-ylamino)-methyl]-phenol] | A (A: 50-90% inhibition at 10 μM enzyme concentration)

Target: c-kit (Homo sapiens, UniProt P10721)
Experiment: as above
Type: biochemical
Conditions: 1 h; class symbol: % inhibition at 10 μM or IC50; read-out: Inhibitory effect on target c-kit
Experimental: as §1, §2, §3

Chain of c-kit (P10721 26-976): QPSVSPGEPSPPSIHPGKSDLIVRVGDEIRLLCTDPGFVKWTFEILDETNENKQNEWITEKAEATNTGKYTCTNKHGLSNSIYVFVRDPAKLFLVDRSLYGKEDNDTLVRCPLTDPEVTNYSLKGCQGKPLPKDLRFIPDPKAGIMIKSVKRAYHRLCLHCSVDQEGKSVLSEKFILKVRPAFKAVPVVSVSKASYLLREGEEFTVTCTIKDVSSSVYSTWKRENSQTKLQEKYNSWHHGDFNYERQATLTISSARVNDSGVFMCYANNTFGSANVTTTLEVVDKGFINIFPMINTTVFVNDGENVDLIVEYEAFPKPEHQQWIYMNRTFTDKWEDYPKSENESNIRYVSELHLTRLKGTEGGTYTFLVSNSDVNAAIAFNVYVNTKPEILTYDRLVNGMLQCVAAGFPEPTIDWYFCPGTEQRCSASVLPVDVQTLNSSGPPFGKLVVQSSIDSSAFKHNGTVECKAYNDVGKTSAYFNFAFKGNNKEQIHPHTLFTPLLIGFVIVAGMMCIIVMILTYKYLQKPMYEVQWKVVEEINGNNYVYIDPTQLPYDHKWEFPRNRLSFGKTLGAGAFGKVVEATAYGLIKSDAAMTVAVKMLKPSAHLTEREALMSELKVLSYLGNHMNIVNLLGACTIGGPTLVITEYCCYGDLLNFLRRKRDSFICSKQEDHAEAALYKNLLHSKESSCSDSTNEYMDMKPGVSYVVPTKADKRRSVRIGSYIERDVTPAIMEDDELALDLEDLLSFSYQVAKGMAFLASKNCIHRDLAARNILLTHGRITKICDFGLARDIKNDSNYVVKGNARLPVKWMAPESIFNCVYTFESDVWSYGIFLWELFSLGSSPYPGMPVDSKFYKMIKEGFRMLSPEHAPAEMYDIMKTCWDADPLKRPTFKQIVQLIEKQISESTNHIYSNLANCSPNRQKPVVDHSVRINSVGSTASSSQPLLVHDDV

inhibition at 10 µM | SMILES
> 90% | COc1cccc(-c2cncc(NCc3cccc(O)c3)c2)c1F [Compound 236, 3-{[5-(2-Fluoro-3-methoxy-phenyl)-pyridin-3-ylamino]-methyl}-phenol]
> 90% | Oc1cccc(CNc2cncc(-c3ccccc3)c2)c1 [Compound 238, 3-[(5-Phenyl-pyridin-3-ylamino)-methyl]-phenol]
50 to 90% | COC(=O)c1cccc(-c2cncc(NCc3cccc(O)c3)c2)c1 [Compound 243, 3-[5-(3-Hydroxy-benzylamino)-pyridin-3-yl]-benzoic acid methyl ester]
> 90% | NC(=O)c1cccc(-c2cncc(NCc3cccc(O)c3)c2)c1 [Compound 230, 3-[5-(3-Hydroxy-benzylamino)-pyridin-3-yl]-benzamide]

Target: p56Lck (Homo sapiens, UniProt P06239)
Experiment: as above
Type: biochemical
Conditions: 1 h; class symbol: % inhibition at 10 μM or IC50; read-out: Inhibitory effect on target p56Lck
Experimental: as §1, §2, §3

Chain of p56Lck (P06239 whole entry, species assumed): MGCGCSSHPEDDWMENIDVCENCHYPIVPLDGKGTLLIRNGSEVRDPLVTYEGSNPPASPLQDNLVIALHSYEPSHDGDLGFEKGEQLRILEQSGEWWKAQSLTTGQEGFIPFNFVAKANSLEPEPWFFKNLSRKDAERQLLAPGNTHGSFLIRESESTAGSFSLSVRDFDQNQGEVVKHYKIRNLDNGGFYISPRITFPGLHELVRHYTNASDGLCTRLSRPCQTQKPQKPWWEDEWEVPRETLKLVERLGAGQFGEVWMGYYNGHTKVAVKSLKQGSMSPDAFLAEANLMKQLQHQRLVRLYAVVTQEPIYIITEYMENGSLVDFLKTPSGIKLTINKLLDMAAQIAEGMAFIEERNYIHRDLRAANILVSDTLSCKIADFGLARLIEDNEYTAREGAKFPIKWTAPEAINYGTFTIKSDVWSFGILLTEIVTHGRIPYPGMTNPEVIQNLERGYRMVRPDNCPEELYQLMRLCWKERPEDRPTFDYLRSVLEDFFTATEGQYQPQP

inhibition at 10 µM | SMILES
50 to 90% | COc1cccc(-c2cncc(NCc3cccc(O)c3)c2)c1F [Compound 236, 3-{[5-(2-Fluoro-3-methoxy-phenyl)-pyridin-3-ylamino]-methyl}-phenol]
50 to 90% | Oc1cccc(CNc2cncc(-c3ccccc3)c2)c1 [Compound 238, 3-[(5-Phenyl-pyridin-3-ylamino)-methyl]-phenol]
> 90% | COC(=O)c1cccc(-c2cncc(NCc3cccc(O)c3)c2)c1 [Compound 243, 3-[5-(3-Hydroxy-benzylamino)-pyridin-3-yl]-benzoic acid methyl ester]
> 90% | NC(=O)c1cccc(-c2cncc(NCc3cccc(O)c3)c2)c1 [Compound 230, 3-[5-(3-Hydroxy-benzylamino)-pyridin-3-yl]-benzamide]

Target: RICK (Homo sapiens, UniProt O43353)
Experiment: as above
Type: biochemical
Conditions: class symbol: % inhibition at 10 μM or IC50
Experimental: as §1, §2, §3

Chain of RICK (O43353 whole entry, species assumed): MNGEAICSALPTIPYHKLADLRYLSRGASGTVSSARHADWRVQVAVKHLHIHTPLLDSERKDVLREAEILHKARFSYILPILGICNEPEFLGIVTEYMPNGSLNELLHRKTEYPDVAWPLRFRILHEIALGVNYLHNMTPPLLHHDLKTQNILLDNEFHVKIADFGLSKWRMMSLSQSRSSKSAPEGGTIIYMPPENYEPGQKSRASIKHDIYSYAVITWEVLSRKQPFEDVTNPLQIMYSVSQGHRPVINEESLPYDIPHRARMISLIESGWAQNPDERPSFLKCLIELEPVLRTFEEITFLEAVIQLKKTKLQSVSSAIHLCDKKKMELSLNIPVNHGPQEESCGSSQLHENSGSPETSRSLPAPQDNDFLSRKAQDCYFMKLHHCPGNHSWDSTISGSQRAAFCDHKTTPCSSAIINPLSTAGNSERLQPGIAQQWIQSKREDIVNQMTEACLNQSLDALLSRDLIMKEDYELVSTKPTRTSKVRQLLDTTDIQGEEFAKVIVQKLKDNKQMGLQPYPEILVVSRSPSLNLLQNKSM

Inhibitory effect on target RICK | SMILES
C (C: IC50 measured: <1 μM) | COc1cccc(-c2cncc(NCc3cccc(O)c3)c2)c1F [Compound 236, 3-{[5-(2-Fluoro-3-methoxy-phenyl)-pyridin-3-ylamino]-methyl}-phenol]
C (C: IC50 measured: <1 μM) | Oc1cccc(CNc2cncc(-c3ccccc3)c2)c1 [Compound 238, 3-[(5-Phenyl-pyridin-3-ylamino)-methyl]-phenol]
C (C: IC50 measured: <1 μM) | COC(=O)c1cccc(-c2cncc(NCc3cccc(O)c3)c2)c1 [Compound 243, 3-[5-(3-Hydroxy-benzylamino)-pyridin-3-yl]-benzoic acid methyl ester]
C (C: IC50 measured: <1 μM) | NC(=O)c1cccc(-c2cncc(NCc3cccc(O)c3)c2)c1 [Compound 230, 3-[5-(3-Hydroxy-benzylamino)-pyridin-3-yl]-benzamide]

Target: CDK1/CyclinB (Homo sapiens, UniProt P06493)
Experiment: as above
Type: biochemical
Conditions: class symbol: % inhibition at 10 μM or IC50
Experimental: as §1, §2, §3

SMILES | Inhibitory effect on target CDK1/CyclinB
COc1cccc(-c2cncc(NCc3cccc(O)c3)c2)c1F [Compound 236, 3-{[5-(2-Fluoro-3-methoxy-phenyl)-pyridin-3-ylamino]-methyl}-phenol] | A (A: 50-90% inhibition at 10 μM enzyme concentration)

Target: CDK2/CyclinA (Homo sapiens, UniProt P24941)
Experiment: as above
Type: biochemical
Conditions: class symbol: % inhibition at 10 μM or IC50
Experimental: as §1, §2, §3

SMILES | Inhibitory effect on target CDK2/CyclinA
COC(=O)c1cccc(-c2cncc(NCc3cccc(O)c3)c2)c1 [Compound 243, 3-[5-(3-Hydroxy-benzylamino)-pyridin-3-yl]-benzoic acid methyl ester] | B (B: >90% inhibition at 10 μM enzyme concentration)

Source: patent publication US20090196912A1, “Pyridinylamines” (GPC Botech AG, priority 2004, published 2009)
